Assay results as given in patent US5118681A (priority 1989, dated 1992).
Values after ≈ are worked out from the molar mass of the structure shown. Like-named read-outs stand apart in the source and are kept apart here.

Assays:
[1] = system: Pseudoperonospora cubensis; assay: whole plant or invertebrate; assay type: in vivo
[2] = system: Staphylococcus aureus (S.a); assay: MIC, broth two-fold serial dilution (Table 3), S.a; assay type: cell-based; conditions: read-out: MIC S.a
Source text: (§1) A minimum inhibitory concentration (MIC) value is obtained using a broth, two-fold serial dilution test performed as follows: A stock solution or dispersion of the test compound, typically at a concentration of 1%, is made in a 5:3:2 solvent solution of acetone, methanol, and water. A volume of the stock solution is dispensed into culture media to give an initial starting test concentration of 500 ppm compound.
(§2) When the test is ready to be done, each vessel in the dilution series, except the first vessel, contains an equal volume of compound free broth. The first vessel contains twice the volume of broth with the starting concentration of test compound. One half of the broth from the first vessel is transferred to the second vessel. After being mixed, one half the resulting volume is removed from the second vessel and transferred to the third vessel. The entire cycle is repeated sufficiently to give a series of concentrations amounting to 500, 250, 125, 63, 31, 16, 8, and 4 ppm, respectively.
(§3) Each vessel is then inoculated with a cell suspension of the appropriate test organism. Bacteria are grown in broth and fungi on agar slants for a time and at a temperature appropriate to the species being tested. At the end of the growth period, the broth is vortexed to disperse the cells. In the case of fungi, the spores are harvested by pipetting water onto the slant and dislodging the spores with a sterile loop. The cell/spore suspension is standardized by controlling incubation time, temperature, and the volume of the diluent. The suspension is then used to inoculate the vessels containing the broth compound. The vessels are then incubated at the appropriate temperature. After the incubation, the vessels are examined for growth/no growth. The minimum inhibitory concentration (MIC) is defined as the lowest concentration of compound that results in complete inhibition of growth of the test organism.
Staphylococcus aureus (S.a), gram positive

[3] = system: Pseudomonas aerugenosa (Ps.ae); assay: MIC, broth two-fold serial dilution (Table 3), Ps.ae; assay type: cell-based; conditions: read-out: MIC Ps.ae
Source text: as §1, §2, §3
Pseudomonas aerugenosa (Ps.ae), gram negative

[4] = system: Pseudomonas fluorescens (Ps.fl); assay: MIC, broth two-fold serial dilution (Table 3), Ps.fl; assay type: cell-based; conditions: read-out: MIC Ps.fl
Source text: as §1, §2, §3
Pseudomonas fluorescens (Ps.fl), gram negative

A.n = assay: Minimum Inhibitory Concentration Test, alternate (Table 4), A.n; assay type: cell-based, Aspergillus niger; conditions: TSB, 72 hours; for MIC: Aspergillus niger
Summary of the method: (§4)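 Compound in acetone was diluted into TSB and serially diluted 1:1 from 250 ppm down to 0.8 ppm, in duplicate. Plates were inoculated with diluted 24 h culture and incubated 3 days at 30° C; MIC recorded as lowest concentration with no growth.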

Pseudomonas fluorescens [5] = assay: Minimum Inhibitory Concentration Test, alternate (Table 4), Ps.fl; assay type: cell-based; conditions: TSB, 72 hours, 30° C; for MIC: Pseudomonas fluorescens
Summary of the method: as §4

Piricularia oryzae = assay: whole plant or invertebrate; assay type: in vivo
ps.fl bacteria = assay: Speed of Kill (SOK) test, 4 h, synthetic hard water (Table 3); assay type: cell-based; conditions: Pseudomonas fluorescens, read-out: SOK (concentration at which compound killed >99.999% of the cells)
Source text: The Speed of Kill (SOK) Test measures the loss of cell viability in an aqueous suspension of bacterial cells during a four hour period when these cells are contacted with a defined concentration of the test compound in synthetic hard water (SHW). A stock solution or dispersion of the test compound, typically at a concentration of 1%, is made in a 5:3:2 solvent solution of acetone, methanol, and water. The SHW is made by taking one liter of sterile deionized water and adding the following solutions to it:
1. 2 ml of a solution of 31.74 g of MgCl2 and 73.99 g of CaCl2 in 1000 ml of sterile distilled water which has been heat sterillized.
2. 4 ml of a solution of 56.03 g of NaHCO3 in 1000 ml of water which has been filter sterillized.
The combined solution is then filter sterilized to yield the SHW. A volume of the stock solution is dispensed into the SHW to give an initial test compound starting concentration of 500 ppm.
as §2, with “run,” for “done,”, “the SHW mixture with the test compound.” for “compound free broth.”, “SHW” for “broth”
Each vessel is then inoculated with a cell suspension of the ps.fl bacteria. The bacteria were grown on a 1% agar slant tube and incubated for 18-24 hours at 30° C. Thereafter, the tube is washed with four ml of sterile water. This was is diluted to a density of 60 to 80 Nephlolmeter Turbidity Units (NTU). To 100 ml of the SHW containing the various concentrations of the test compound is added 0.75 ml of inoculum from the 60-80 NTU wash with good mixing. After 4 hours from the time of addition at 30° C., 5 μl of solution is transferred to 100 μl of a broth solution in order to recover any living cells. This mixture is incubated for 24 hours at 30° C. before noting the concentration in ppm at which each compound killed >99.999% of the cells in the SHW solution.

[6] = system: Erysiphe graminis (f. sp. tritici); assay: whole plant or invertebrate; assay type: in vivo
Aspergillus niger (A.n) = assay: MIC, broth two-fold serial dilution (Table 3), A.n; assay type: cell-based; conditions: read-out: MIC A.n
Source text: as §1, §2, §3

Phytophthora infestans = assay: whole plant or invertebrate; assay type: in vivo; conditions: for pest or weed control at 200 ppm / pest or weed control at 300 ppm / pest or weed control at 100 ppm: Phytophthora infestans, in Solanum lycopersicum, 96 h, read-out: % control TLB
[7] = system: Puccinia graminis (f. sp. tritici Race 15B-2); assay: whole plant or invertebrate; assay type: in vivo; conditions: 336 h, read-out: % control WSR
Escherichia coli (E.c) = assay: MIC, broth two-fold serial dilution (Table 3), E.c; assay type: cell-based; conditions: read-out: MIC E.c
Source text: as §1, §2, §3
Escherichia coli (E.c), gram negative

[8] = system: Aureobasidium pullulans (A.p); assay: MIC, broth two-fold serial dilution (Table 3), A.p; assay type: cell-based; conditions: read-out: MIC A.p
Source text: as §1, §2, §3
Aureobasidium pullulans (A.p)

[9] = system: Pellicularia filamentosa (f. sp. sasiki); assay: whole plant or invertebrate; assay type: in vivo
[10] = system: Puccinia recondita (f. sp. tritici Races PKB and PLD); assay: whole plant or invertebrate; assay type: in vivo
Pseudomonas fluorescens [11] = assay: Speed of Kill Test, alternate, 24 h, synthetic hard water (Table 4); assay type: cell-based; conditions: Ps.fl in synthetic hard water, 100 ppm
[12] = Pseudoperonospora cubensis, in Cucumis sativus, 168 h, read-out: % control CDM
[13] = Table 3, broth two-fold serial dilution
[14] = Pyricularia oryzae, read-out: % control RB
[15] = Table 3, Ps.fl in synthetic hard water, 4 hours, 30° C
[16] = Blumeria graminis, read-out: % control WPM
[17] = Puccinia recondita, 240 h, read-out: % control WLR

| Compound | pest or weed control at 200 ppm [1, 12] [%] | MIC [2, 13] [µg/mL] | MIC [3] [µg/mL] | MIC [4, 13] [µg/mL] | MIC (A.n) [µg/mL] | MIC (Pseudomonas fluorescens [5]) [µg/mL] | pest or weed control at 200 ppm (Piricularia oryzae; [14]) [%] | MBC (ps.fl bacteria; [15]) [µg/mL] | pest or weed control at 300 ppm [6, 16] [%] | MIC (Aspergillus niger (A.n)) [µg/mL] | MIC (Escherichia coli (E.c); [13]) [µg/mL] | MIC [8, 13] [µg/mL] | further results |
| --- | --- | --- | --- | --- | --- | --- | --- | --- | --- | --- | --- | --- | --- |
| CCCCCCCCNC(=O)/C=C\SC(C(C)=O)C(C)=O [Example 1, N-n-octyl-cis-3-[3-(2,4-pentanedionyl)thio]acrylamide] | 100 | < 4 | < 4 | > 500 | > 500 | > 500 | 98 | > 500 | 25 | 8 (≈ 25.5 µM) | > 500 | < 4 | pest or weed control at 200 ppm (Phytophthora infestans): 100%; pest or weed control at 100 ppm [7]: 50% |
| CCCCCCCCNC(=O)/C(Cl)=C(/Cl)SC(C(C)=O)C(C)=O [Example 2, N-n-octyl-2,3-dichloro-cis-3-[3-(2,4-pentanedionyl)thio]acrylamide] | – | < 4 | < 4 | > 500 | > 500 | > 500 | – | > 500 | 78 | 8 (≈ 20.9 µM) | > 500 | < 4 | pest or weed control at 300 ppm [1, 12]: 85%; pest or weed control at 300 ppm (Piricularia oryzae; [14]): 0%; pest or weed control at 300 ppm ([9]; 120 h, read-out: % control RSB): 0%; pest or weed control at 300 ppm (Phytophthora infestans): 10%; pest or weed control at 150 ppm [7]: 85% |
| CC(=O)C(S/C(Cl)=C(/Cl)C(=O)NC1CCCCC1)C(C)=O [Example 6, N-cyclohexyl-2,3-dichloro-cis-3-[3-(2,4-pentanedionyl)thio]acrylamide] | 85 | 16 (≈ 45.4 µM) | 32 (≈ 90.8 µM) | > 500 | > 500 | > 500 | 70 | > 500 | 0 | 125 (≈ 355 µM) | 500 (≈ 1420 µM) | < 4 | pest or weed control at 200 ppm ([9]; 120 h, read-out: % control RSB): 0%; pest or weed control at 300 ppm (Phytophthora infestans): 0%; pest or weed control at 300 ppm [7]: 0% |
| CCCCCCCCNC(=O)/C=C\SC(C(=O)NCCCCCCCC)C(=O)OCC (stereo not drawn) [Example 18, N-n-octyl-cis-3-[2-(ethyl-N-n-octylmalonamido)thio]acrylamide] | 97 | – | > 500 | – | > 500 | > 500 | 25 | – | – | < 4 | – | – | MIC [2]: 8 µg/mL (≈ 17.5 µM); MIC [4]: < 4 µg/mL; MBC (ps.fl bacteria; 4 h): 16 µg/mL (≈ 35 µM); pest or weed control at 200 ppm [6, 16]: 0%; pest or weed control at 300 ppm ([9]; 120 h, read-out: % control RSB): 90%; pest or weed control at 200 ppm (Phytophthora infestans): 92%; pest or weed control at 200 ppm [10, 17]: 74%; MIC (Escherichia coli (E.c)): 250 µg/mL (≈ 547 µM); MIC [8]: < 4 µg/mL |
| CCCCCCCCNC(=O)/C=C\SC(C(=O)Nc1cc(C)ccc1Cl)C(=O)OCC (stereo not drawn) [Example 42, N-n-octyl-cis-3-{2-[ethyl-N-(2-chloro-5-methylphenyl)malonamido]thio}acrylamide] | – | 8 (≈ 17.1 µM) | > 500 | 8 (≈ 17.1 µM) | – | – | – | 125 (≈ 266 µM) | – | < 4 | 500 (≈ 1070 µM) | 16 (≈ 34.1 µM) | pest or weed control at 100 ppm (Phytophthora infestans): 91% |
| CCCCCCCCNC(=O)/C=C\SC(C(=O)NCc1cccnc1)C(=O)OCC (stereo not drawn) [Example 49, N-n-octyl-cis-3-{2-[ethyl-N-((3-pyridyl)methyl)malonamido]thio}acrylamide] | – | < 4 | < 4 | > 500 | – | – | – | > 500 | – | < 4 | > 500 | < 4 | pest or weed control at 100 ppm [1, 12]: 85%; pest or weed control at 100 ppm (Piricularia oryzae; [14]): 0%; pest or weed control at 100 ppm [6, 16]: 50%; pest or weed control at 100 ppm ([9]; 120 h, read-out: % control RSB): 0%; pest or weed control at 100 ppm (Phytophthora infestans): 90%; pest or weed control at 100 ppm [10, 17]: 0% |
| CCCCCCCCNC(=O)/C=C\SC(C(=O)OCC)C(=O)c1ccccc1 (stereo not drawn) [Example 69, N-n-octyl-cis-3-[2-(ethoxy-3-phenyl-3-oxopropanoyl)thio]acrylamide] | – | – | 32 (≈ 78.9 µM) | – | – | – | – | – | – | 125 (≈ 308 µM) | – | – | MIC [2]: 16 µg/mL (≈ 39.5 µM); MIC [4]: > 500 µg/mL; MBC (ps.fl bacteria; 4 h): > 500 µg/mL; MIC (Escherichia coli (E.c)): 500 µg/mL (≈ 1230 µM); MIC [8]: < 4 µg/mL |
| N-n-octyl-cis-3-[2-(N-benzyl-N'-n-octylmalonodiamido)thio]acrylamide [Example 61] | – | – | – | – | – | – | – | – | – | – | – | – | % control CDM ([1]; in vivo): 99%; MIC A.n (A.n): > 250 ppm; MIC Ps.fl (Pseudomonas fluorescens [5]): > 250 ppm; % control RB (Piricularia oryzae; in vivo): 0%; SOK (Pseudomonas fluorescens [11]): > 100 ppm; % control WPM ([6]; in vivo): 0%; % control RSB ([9]; in vivo): 0%; % control TLB (Phytophthora infestans; 100 ppm application rate): 0%; % control WLR ([10]; in vivo): 0% |
